Experimental data taken from patent publication US11590107B2, “Methods for treating neurological disorders with α1A-AR partial agonists” (CURASEN THERAPEUTICS, INC., priority 2019, dated 2023).
Read-outs that look alike come from different tables or passages of the source.

Columns and labels:
[1] = system: patients with central autonomic failure; conditions: Ramirez et al. 2014, Shibao et al. 2007; cited from earlier work
α1A-AR receptor [2] = molecular target: T1, α1A-AR receptor (Homo sapiens, UniProt P35348); conditions: InsPs accumulation assay; Blue et al., Table 1; cited from earlier work
T1 sequence (P35348 1-466): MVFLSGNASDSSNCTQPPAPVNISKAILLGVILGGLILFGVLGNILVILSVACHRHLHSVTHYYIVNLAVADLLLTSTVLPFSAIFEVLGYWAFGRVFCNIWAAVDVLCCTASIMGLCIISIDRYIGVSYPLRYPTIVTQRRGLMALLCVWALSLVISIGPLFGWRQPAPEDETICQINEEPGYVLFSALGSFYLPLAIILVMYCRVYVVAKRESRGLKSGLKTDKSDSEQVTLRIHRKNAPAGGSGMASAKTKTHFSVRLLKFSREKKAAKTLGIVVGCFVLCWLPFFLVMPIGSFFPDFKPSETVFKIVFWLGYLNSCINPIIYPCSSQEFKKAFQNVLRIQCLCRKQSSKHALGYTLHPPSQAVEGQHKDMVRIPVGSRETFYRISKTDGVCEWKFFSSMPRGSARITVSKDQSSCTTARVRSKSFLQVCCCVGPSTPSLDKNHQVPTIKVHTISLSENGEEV

α1A-AR receptor [3] = molecular target: T1, α1A-AR receptor; conditions: FLIPR assay; Blue et al., Table 1; cited from earlier work
[4] = system: patients with symptomatic neurogenic orthostatic hypotension; assay: Treatment of patients having nOH (Example 1); type: in vivo, human; conditions: 5 mg oral tablets twice daily, follow-up after one week
Procedure: Patients between the age of 40 and 80 years old that have been diagnosed with symptomatic orthostatic hypotension due to pure autonomic failure, multiple system atrophy or Parkinson's disease (i.e., PD plus symptoms) present for treatment. At the time of presentation, autonomic function testing is conducted to confirm the diagnosis of autonomic dysfunction including sinus arrhythmia and the Valsalva maneuver.
The patients are given 5 mg dabuzalgron oral tablets and are instructed to take one tablet shortly after waking up in the morning and a second tablet 4-6 hours later each day.
Some patients return for a follow-up visit after one week of treatment. […] In the follow-up visit supine systolic blood pressure (SSBP) may be determined.

## CNCC[C@@H](Oc1ccccc1C)c1ccccc1 [Atomoxetine]
[1]
  effect on blood pressure: increase blood pressure

## Cc1c(OCC2=NCCN2)ccc(Cl)c1NS(C)(=O)=O.Cl [RO 115-1240 (dabuzalgron) HCl salt, N-[6-chloro-3-(4,5-dihydro-1H-imidazol-2-ylmethoxy)-2-methylphenyl] methanesulfonamide hydrochloride]
α1A-AR receptor [2]
  intrinsic activity as compared to noradrenaline: 0.27
α1A-AR receptor [3]
  intrinsic activity as compared to noradrenaline: 0.51

## Cc1c(OCC2=NCCN2)ccc(Cl)c1NS(C)(=O)=O [RO 115-1240 (dabuzalgron) free base, N-[6-chloro-3-(4,5-dihydro-1H-imidazol-2-ylmethoxy)-2-methylphenyl] methanesulfonamide]
α1A-AR receptor [2]
  intrinsic activity as compared to noradrenaline: 0.31

## Cc1c(OCC2=NCCN2)ccc(Cl)c1NS(C)(=O)=O [dabulzagron, N-[6-chloro-3-(4,5-dihydro-1H-imidazol-2-ylmethoxy)-2-methylphenyl] methanesulfonamide]
[4]
  rise in SSBP compared with patients taking midodrine or droxidopa for nOH: less that that observed in patients taking midodrine or droxidopa
  rise in supine systolic blood pressure (SSBP): not experience a substantial rise in SSBP
  symptoms of nOH as compared to the first visit before treatment: improve
